Results on two molecules are retold here after ChEMBL document CHEMBL4699460, “Integrating DNA-encoded chemical libraries with virtual combinatorial library screening: Optimizing a PARP10 inhibitor” (Bioorg Med Chem Lett, 2020).

The target in experiment [1] is T1, Poly [ADP-ribose] polymerase tankyrase-2 (Homo sapiens) (UniProt Q9H2K2).
T1 sequence (whole entry): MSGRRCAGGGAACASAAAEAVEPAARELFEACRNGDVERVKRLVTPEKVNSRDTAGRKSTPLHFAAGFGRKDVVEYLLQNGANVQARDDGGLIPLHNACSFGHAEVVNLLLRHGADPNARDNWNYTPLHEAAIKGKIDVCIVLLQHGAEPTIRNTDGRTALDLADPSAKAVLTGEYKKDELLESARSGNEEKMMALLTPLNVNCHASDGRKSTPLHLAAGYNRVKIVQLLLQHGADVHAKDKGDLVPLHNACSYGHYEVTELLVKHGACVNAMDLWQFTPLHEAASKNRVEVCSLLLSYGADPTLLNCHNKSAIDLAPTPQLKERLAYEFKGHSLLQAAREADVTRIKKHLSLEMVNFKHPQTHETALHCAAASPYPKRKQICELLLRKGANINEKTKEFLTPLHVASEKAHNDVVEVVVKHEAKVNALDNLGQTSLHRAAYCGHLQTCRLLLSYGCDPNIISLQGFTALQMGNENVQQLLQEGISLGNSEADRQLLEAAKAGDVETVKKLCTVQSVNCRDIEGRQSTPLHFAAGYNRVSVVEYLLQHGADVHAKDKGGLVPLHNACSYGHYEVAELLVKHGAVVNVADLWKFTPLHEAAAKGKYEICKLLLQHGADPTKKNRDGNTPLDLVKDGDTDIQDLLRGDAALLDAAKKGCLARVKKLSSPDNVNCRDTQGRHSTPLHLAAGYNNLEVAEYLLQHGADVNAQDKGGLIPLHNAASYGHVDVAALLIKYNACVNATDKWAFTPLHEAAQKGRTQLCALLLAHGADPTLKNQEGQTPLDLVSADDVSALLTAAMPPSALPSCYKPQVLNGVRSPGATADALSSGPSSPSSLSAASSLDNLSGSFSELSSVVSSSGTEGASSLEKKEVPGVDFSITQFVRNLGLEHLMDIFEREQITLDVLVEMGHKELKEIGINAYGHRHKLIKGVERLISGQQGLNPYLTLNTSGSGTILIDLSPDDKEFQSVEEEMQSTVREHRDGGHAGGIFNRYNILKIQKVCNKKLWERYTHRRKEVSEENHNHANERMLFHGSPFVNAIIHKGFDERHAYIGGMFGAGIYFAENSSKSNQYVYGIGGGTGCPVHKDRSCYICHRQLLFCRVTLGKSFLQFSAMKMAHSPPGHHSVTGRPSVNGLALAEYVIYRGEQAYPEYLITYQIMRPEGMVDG
Put plainly: Inhibition of TNKS2 (unknown origin) at 10 uM relative to control.

Experiment [2] addresses T2, Poly [ADP-ribose] polymerase tankyrase-1 (Homo sapiens) (UniProt O95271).
T2 sequence (whole entry): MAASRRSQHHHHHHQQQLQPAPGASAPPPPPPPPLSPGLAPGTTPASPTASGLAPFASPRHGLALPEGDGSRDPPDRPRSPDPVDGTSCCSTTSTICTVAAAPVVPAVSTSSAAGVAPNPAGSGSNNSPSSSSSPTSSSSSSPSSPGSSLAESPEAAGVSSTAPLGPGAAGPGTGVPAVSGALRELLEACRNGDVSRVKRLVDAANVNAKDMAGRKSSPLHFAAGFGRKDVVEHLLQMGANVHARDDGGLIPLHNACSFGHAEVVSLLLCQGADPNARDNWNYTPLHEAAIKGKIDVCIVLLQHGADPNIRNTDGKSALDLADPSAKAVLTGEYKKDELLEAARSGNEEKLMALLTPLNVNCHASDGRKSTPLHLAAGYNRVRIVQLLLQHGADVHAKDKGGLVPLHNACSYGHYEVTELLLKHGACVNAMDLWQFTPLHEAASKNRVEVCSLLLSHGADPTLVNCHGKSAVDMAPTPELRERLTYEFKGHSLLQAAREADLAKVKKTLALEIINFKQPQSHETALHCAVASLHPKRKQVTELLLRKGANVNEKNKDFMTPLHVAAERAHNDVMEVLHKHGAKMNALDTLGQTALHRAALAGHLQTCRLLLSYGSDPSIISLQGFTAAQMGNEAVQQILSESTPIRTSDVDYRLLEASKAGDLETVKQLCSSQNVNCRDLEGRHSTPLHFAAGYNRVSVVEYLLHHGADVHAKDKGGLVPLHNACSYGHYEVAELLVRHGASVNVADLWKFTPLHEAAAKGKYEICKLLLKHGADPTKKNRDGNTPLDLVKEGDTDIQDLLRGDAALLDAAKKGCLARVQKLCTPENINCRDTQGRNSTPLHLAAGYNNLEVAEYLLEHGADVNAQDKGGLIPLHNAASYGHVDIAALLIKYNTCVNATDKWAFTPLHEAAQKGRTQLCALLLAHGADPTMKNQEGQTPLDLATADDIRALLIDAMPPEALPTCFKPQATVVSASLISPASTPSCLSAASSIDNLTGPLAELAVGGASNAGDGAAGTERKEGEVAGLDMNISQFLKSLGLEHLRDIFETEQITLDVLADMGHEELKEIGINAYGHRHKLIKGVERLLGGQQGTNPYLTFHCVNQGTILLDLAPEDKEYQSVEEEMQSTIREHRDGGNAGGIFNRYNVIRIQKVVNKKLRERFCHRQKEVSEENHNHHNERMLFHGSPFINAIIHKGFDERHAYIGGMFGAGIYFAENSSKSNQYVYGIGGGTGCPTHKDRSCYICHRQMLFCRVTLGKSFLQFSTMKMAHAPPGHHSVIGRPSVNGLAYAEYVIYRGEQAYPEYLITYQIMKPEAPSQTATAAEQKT
The experiment in a line: Inhibition of N-terminal GST-tagged human TNKS1 (1001 to 1327 residues) expressed in baculovirus-infected Sf9 cells assessed as reduction in NAD+-dependent ADP ribosylation using histone as substrate at 10 uM incubated for 1 hr in presence of biotinylated NAD+ and activated DNA by chemiluminescence based microplate reader assay relative to control.

As to `CC1(CNC(=O)COc2cccc3c2CCCC3=O)CCN(C(=O)CCc2nc3ccccc3[nH]c2=O)CC1`, the inhibition in experiment [1] and in experiment [2] was over 50% each time.

`CNC(=O)[C@H](CNC(=O)CCc1nc2ccccc2[nH]c1=O)NC(=O)c1ccc2c(c1)CCCC2=O`: the inhibition in experiment [1] and in experiment [2] was under 25% throughout.
